Where “and” joins values, the source holds several entries; their conditions need not be identical. Identical values can stand only once. After the bases stand the sugars from the 5' end (letter, count) and the backbone: PS all phosphorothioate, else s phosphorothioate and o phosphodiester by linkage. Methylation of C is not given here. k = constrained ethyl (cEt); d = 2'-deoxy (DNA)
Target: MALAT1
Settings: ASO, A431, 0.005 µM

Sequence: ATCAGCTTCCGCTAAG (sugars k3 d10 k3, PS)
- target mRNA inhibition: 4%

Sequence: TTCAACTGGGAATACT (sugars k3 d10 k3, PS)
- target mRNA inhibition: 17%

Sequence: TAGGATCCTCTACGCA (sugars k3 d10 k3, PS)
- target mRNA inhibition: 23%

Sequence: GACAGACCTAAGGGAA (sugars k3 d10 k3, PS)
- target mRNA inhibition: 34%

Sequence: ATACTATTGTCCCATA (sugars k3 d10 k3, PS)
- target mRNA inhibition: 31%

Sequence: GGCCTACTCAAGCTCT (sugars k3 d10 k3, PS)
- target mRNA inhibition: 14%

Sequence: GAACAGTACTGCATTT (sugars k3 d10 k3, PS)
- target mRNA inhibition: 28%

Sequence: ATGGTAGATTCCGTAA (sugars k3 d10 k3, PS)
- target mRNA inhibition: 14%

Sequence: AATTCACCAAGGAGCT (sugars k3 d10 k3, PS)
- target mRNA inhibition: 35%

Sequence: ACTTATCTGCGGTTTC (sugars k3 d10 k3, PS)
- target mRNA inhibition: 71% and 53%

Sequence: AGCTTATGGAACTTGA (sugars k3 d10 k3, PS)
- target mRNA inhibition: 16%

Sequence: TACTGAAGAGCATTGG (sugars k3 d10 k3, PS)
- target mRNA inhibition: 71%

Sequence: TGTAAAACATTGCCTA (sugars k3 d10 k3, PS)
- target mRNA inhibition: -7%

Sequence: ACCCCCACGCCAACAC (sugars k3 d10 k3, PS)
- target mRNA inhibition: 23%

Sequence: AAACTTGCCATCTACT (sugars k3 d10 k3, PS)
- target mRNA inhibition: -4%

Sequence: ATGCCTACCGCACAGC (sugars k3 d10 k3, PS)
- target mRNA inhibition: -8%

Sequence: AGCAGTAACATCTGAT (sugars k3 d10 k3, PS)
- target mRNA inhibition: 41%

Sequence: AAGGCTCGATGGAAAA (sugars k3 d10 k3, PS)
- target mRNA inhibition: 7%

Sequence: CTTCTGATAACGAAGA (sugars k3 d10 k3, PS)
- target mRNA inhibition: -5%

Sequence: GACTGCTTAAAACTGC (sugars k3 d10 k3, PS)
- target mRNA inhibition: 36%

Sequence: ACTGAAAACTCCCCCC (sugars k3 d10 k3, PS)
- target mRNA inhibition: -3%

Sequence: TAGACCAACTAAGCGA (sugars k3 d10 k3, PS)
- target mRNA inhibition: -9%

Sequence: CATCAGAAGAAATCCC (sugars k3 d10 k3, PS)
- target mRNA inhibition: 17%

Sequence: TCACTGCAAGGTCTCA (sugars k3 d10 k3, PS)
- target mRNA inhibition: 48%

Sequence: ACTTCCCCTTCTAGCT (sugars k3 d10 k3, PS)
- target mRNA inhibition: 36%

Sequence: TACTCTAATCACTGTC (sugars k3 d10 k3, PS)
- target mRNA inhibition: 15%

Sequence: CAATTTATAGACCCCT (sugars k3 d10 k3, PS)
- target mRNA inhibition: -6%

Sequence: AACTCCCCCATTATAT (sugars k3 d10 k3, PS)
- target mRNA inhibition: -1%

Sequence: CTTCAACATTTGGCCT (sugars k3 d10 k3, PS)
- target mRNA inhibition: 18%

Sequence: ATTGGAGATCAGCTTC (sugars k3 d10 k3, PS)
- target mRNA inhibition: 52%

Sequence: CAATTTAGAGCTTCTC (sugars k3 d10 k3, PS)
- target mRNA inhibition: -12%

Sequence: TGGCATATGCAGATAA (sugars k3 d10 k3, PS)
- target mRNA inhibition: 69% and 89%

Sequence: TTAAATTGATGGGCTT (sugars k3 d10 k3, PS)
- target mRNA inhibition: 22%

Sequence: AGTCAAGCTCCTGACA (sugars k3 d10 k3, PS)
- target mRNA inhibition: 13%

Sequence: CTGCAGGCTATTACCT (sugars k3 d10 k3, PS)
- target mRNA inhibition: -6%

Sequence: GCCCACTCTGATCTGC (sugars k3 d10 k3, PS)
- target mRNA inhibition: -4%

Sequence: ACTTTAAGCCTTCGGT (sugars k3 d10 k3, PS)
- target mRNA inhibition: 13%

Sequence: TAGTACTATAGCATCT (sugars k3 d10 k3, PS)
- target mRNA inhibition: 49%

Sequence: CTATTGGTATTAATTC (sugars k3 d10 k3, PS)
- target mRNA inhibition: 7%

Sequence: AACCCCCAGTTCAATA (sugars k3 d10 k3, PS)
- target mRNA inhibition: 20%

Sequence: CACTTTCCTTGCCCAA (sugars k3 d10 k3, PS)
- target mRNA inhibition: 69% and 61%

Sequence: TCAAGTCAAGCTCCTG (sugars k3 d10 k3, PS)
- target mRNA inhibition: 3%

Sequence: TAAGTTGGTTTTAGTC (sugars k3 d10 k3, PS)
- target mRNA inhibition: 78% and 92%

Sequence: CTCCATGGTTGTCCTA (sugars k3 d10 k3, PS)
- target mRNA inhibition: 39%

Sequence: AATACTCTTCCAAGGA (sugars k3 d10 k3, PS)
- target mRNA inhibition: 15%

Sequence: CATTTTGCCCTTAGCT (sugars k3 d10 k3, PS)
- target mRNA inhibition: 54%

Sequence: ACCTGGGCTCCCGGAG (sugars k3 d10 k3, PS)
- target mRNA inhibition: 19%

Sequence: TTGCCCCTCCCCTTTA (sugars k3 d10 k3, PS)
- target mRNA inhibition: 42%

Sequence: CCACCAATCCCAACCG (sugars k3 d10 k3, PS)
- target mRNA inhibition: 26%

Sequence: AGGCGAGCTGAGGCTT (sugars k3 d10 k3, PS)
- target mRNA inhibition: 19%

Sequence: AGAGATACCTGTCTGA (sugars k3 d10 k3, PS)
- target mRNA inhibition: 22%

Sequence: AGATTAAAGTGTGATA (sugars k3 d10 k3, PS)
- target mRNA inhibition: 27%

Sequence: ATCACTACTCCAAGCA (sugars k3 d10 k3, PS)
- target mRNA inhibition: 20%

Sequence: AGGGTTATGCTTATTC (sugars k3 d10 k3, PS)
- target mRNA inhibition: 63% and 60%

Sequence: TTACTTTCCATTACGC (sugars k3 d10 k3, PS)
- target mRNA inhibition: 16%

Sequence: CCCAATGGAGGTATGA (sugars k3 d10 k3, PS)
- target mRNA inhibition: 23%

Sequence: GAGTTGAGGCAAGTCC (sugars k3 d10 k3, PS)
- target mRNA inhibition: 52%

Sequence: CTGATAAACTCACTGC (sugars k3 d10 k3, PS)
- target mRNA inhibition: 48%

Sequence: AACCTGGGCTCCCGGA (sugars k3 d10 k3, PS)
- target mRNA inhibition: 30%

Sequence: CGTATTTATAGACGGA (sugars k3 d10 k3, PS)
- target mRNA inhibition: -9%

Sequence: CCGTTGGCTGCCAGTG (sugars k3 d10 k3, PS)
- target mRNA inhibition: 6%

Sequence: TATAGCTTGACAAGCA (sugars k3 d10 k3, PS)
- target mRNA inhibition: 19%

Sequence: GCTGAACTATCACAAT (sugars k3 d10 k3, PS)
- target mRNA inhibition: 27%

Sequence: AACAATCACTACTCCA (sugars k3 d10 k3, PS)
- target mRNA inhibition: 26%

Sequence: TGCCCTTAGCTTTTTG (sugars k3 d10 k3, PS)
- target mRNA inhibition: 56%

Sequence: ATTCCCACCCAAAAGC (sugars k3 d10 k3, PS)
- target mRNA inhibition: 5%

Sequence: ACTGATTTTAAGGTTG (sugars k3 d10 k3, PS)
- target mRNA inhibition: 26%

Sequence: GGCTCATATTTAACTT (sugars k3 d10 k3, PS)
- target mRNA inhibition: 20%

Sequence: CATTTCTCCAATGGAC (sugars k3 d10 k3, PS)
- target mRNA inhibition: 12%

Sequence: AGGCTTTAAATGACGC (sugars k3 d10 k3, PS)
- target mRNA inhibition: -11%

Sequence: GTACTATCCCATCACT (sugars k3 d10 k3, PS)
- target mRNA inhibition: 33%

Sequence: CCCCCCAAGATTGCCC (sugars k3 d10 k3, PS)
- target mRNA inhibition: 14%

Sequence: AAACTAAATCATTGGG (sugars k3 d10 k3, PS)
- target mRNA inhibition: 43%

Sequence: AAGCCCTCTCAGCCAC (sugars k3 d10 k3, PS)
- target mRNA inhibition: 38%

Sequence: GATTAAAGTGTGATAG (sugars k3 d10 k3, PS)
- target mRNA inhibition: 16%

Sequence: ACAAGGATCCAAGCTA (sugars k3 d10 k3, PS)
- target mRNA inhibition: -7%

Sequence: GTCTGAAGAATACCAT (sugars k3 d10 k3, PS)
- target mRNA inhibition: 47%

Sequence: ACAAGATTCATGAGTA (sugars k3 d10 k3, PS)
- target mRNA inhibition: 27%

Sequence: CTAAAGGCTTCAGTCC (sugars k3 d10 k3, PS)
- target mRNA inhibition: 23%

Sequence: ATTGTCTCAATTTGGC (sugars k3 d10 k3, PS)
- target mRNA inhibition: 63% and 84%

Sequence: AAAACGAATTCAGGGT (sugars k3 d10 k3, PS)
- target mRNA inhibition: 25%

Sequence: CAGGATCATTAAGCCA (sugars k3 d10 k3, PS)
- target mRNA inhibition: 42%

Sequence: GTAGTTGTATTAATCT (sugars k3 d10 k3, PS)
- target mRNA inhibition: 68% and 65%

Sequence: ATCAAGGATGTATATA (sugars k3 d10 k3, PS)
- target mRNA inhibition: 0%

Sequence: AACTTCAACATTTGGC (sugars k3 d10 k3, PS)
- target mRNA inhibition: 56%

Sequence: GTCAATAGTACTATAG (sugars k3 d10 k3, PS)
- target mRNA inhibition: 58% and 42%

Sequence: GTTACCAATAATTTCC (sugars k3 d10 k3, PS)
- target mRNA inhibition: 71% and 50%

Sequence: CACCTTCGGTTTAATC (sugars k3 d10 k3, PS)
- target mRNA inhibition: 20%

Sequence: ATCCCATCACTGAAGC (sugars k3 d10 k3, PS)
- target mRNA inhibition: 36%

Sequence: AGTTTACCACCTTTTG (sugars k3 d10 k3, PS)
- target mRNA inhibition: 23%

Sequence: TCTTCGGTTAAAAATA (sugars k3 d10 k3, PS)
- target mRNA inhibition: 19%

Sequence: ACTTCCGTTACGAAAG (sugars k3 d10 k3, PS)
- target mRNA inhibition: 1%

Sequence: GAATTCGATCACCTTC (sugars k3 d10 k3, PS)
- target mRNA inhibition: -1%

Sequence: AAACGGGTCATCAAAC (sugars k3 d10 k3, PS)
- target mRNA inhibition: 19%

Sequence: TTCCTTATTTAGAGGG (sugars k3 d10 k3, PS)
- target mRNA inhibition: 14%

Sequence: GATCATTAAGCCACTT (sugars k3 d10 k3, PS)
- target mRNA inhibition: 10%

Sequence: AAATAAGCACTTATCC (sugars k3 d10 k3, PS)
- target mRNA inhibition: 18%

Sequence: GTCAGGGACACACCCA (sugars k3 d10 k3, PS)
- target mRNA inhibition: -11%

Sequence: AACTGCTTGCAGTCCT (sugars k3 d10 k3, PS)
- target mRNA inhibition: 5%

Sequence: TATACTTCTCCAATAC (sugars k3 d10 k3, PS)
- target mRNA inhibition: 18%

Sequence: TATTTTAAACGGGTCA (sugars k3 d10 k3, PS)
- target mRNA inhibition: 3%

Sequence: ACCCAAAAGCCCTCTC (sugars k3 d10 k3, PS)
- target mRNA inhibition: 13%

Sequence: GAAGAAGCTTCATCTC (sugars k3 d10 k3, PS)
- target mRNA inhibition: 15%

Sequence: AACTCCCCCCCGCCTC (sugars k3 d10 k3, PS)
- target mRNA inhibition: 6%

Sequence: AGTCCTGCGACTTGCT (sugars k3 d10 k3, PS)
- target mRNA inhibition: 26%

Sequence: TCCTCCGTGTGGTTGC (sugars k3 d10 k3, PS)
- target mRNA inhibition: 18%

Sequence: AATATTTGCCCCTCCC (sugars k3 d10 k3, PS)
- target mRNA inhibition: 15%

Sequence: CCTATCTTCACCACGA (sugars k3 d10 k3, PS)
- target mRNA inhibition: 6%

Sequence: CCACAGGAACAAGTCC (sugars k3 d10 k3, PS)
- target mRNA inhibition: -5%

Sequence: GATTTGAGCTGCAAAC (sugars k3 d10 k3, PS)
- target mRNA inhibition: 0%

Sequence: GGCCAGCCTATAAGGA (sugars k3 d10 k3, PS)
- target mRNA inhibition: 6%

Sequence: AAGTCAAGCTCCTGAC (sugars k3 d10 k3, PS)
- target mRNA inhibition: 4%

Sequence: CTGCAGAGTTTGAGTG (sugars k3 d10 k3, PS)
- target mRNA inhibition: -19%

Sequence: GAAGTGTTTACACTGC (sugars k3 d10 k3, PS)
- target mRNA inhibition: 11%

Source: the OligoGym collection
